Test system: human CD1d-restricted T cell clones
Assay: Flow cytometric staining with lipid treated multimerized CD1d-Fc aggregates
Format: cell-based
Conditions: flow cytometry, human CD1d-Fc/Alexa 488 protein A aggregate, 40:1 lipid to fusion protein, compared with DMSO alone
Method: To facilitate binding to CD1 specific T cells for detection by flow cytometry, a highly multimerized form of the CD1d fusion protein was formed using fluorescently labeled protein A molecules. Protein A molecules spontaneously associate in solution at neutral pH with immunoglobulin Fc regions, forming complexes containing four Fc molecules and two protein A molecules (4+2 complexes, reference 2). The human CD1d-Fc fusion protein was incubated with Alexa 488 dye labeled protein A, and the 4+2 complexes purified by size exclusion chromatography on a Pharmacia Superose 6 column using PBS pH 7.2 as a running buffer. The purified 4+2 aggregates were concentrated to 100 μg/ml with ovalbumin as a carrier protein. The CD1d-Fc aggregate was then pre-incubated for 24 to 48 hours at 37° C. with antigenic glycolipids dissolved in DMSO at a 40:1 molar ratio of lipid to fusion protein, or with an equivalent volume of DMSO alone as a negative control. The T cell staining was performed at room temperature or 4° C. for 20 min, at a concentration of 40 μg/ml of the lipid or control treated CD1d-Fc aggregate.
To facilitate binding to CD1 specific T cells for detection by flow cytometry, a highly multimerized form of the CD1d fusion protein is formed using fluorescently labeled protein A molecules. Protein A molecules spontaneously associate in solution at neutral pH with immunoglobulin Fc regions, forming complexes containing four Fc molecules and two protein A molecules (4+2 complexes, Langone, J.J. et al, Molec. and Cell. Biochem, 65(2):159-70 (1985)). The human CD1d-Fc fusion protein was incubated with Alexa 488-dye labeled protein A, and the 4+2 complexes purified by size exclusion chromatography on a Phannacia Superose 6 column using PBS pH 7.2 as a running buffer. The purified 4+2 aggregates are concentrated to 100 μg/ml with ovalbumin as a carrier protein. The CD1d-Fc aggregate is then pre-incubated for 24 to 48 hours at 37° C. with antigenic glycolipids dissolved in DMSO at a 40:1 molar ratio of lipid to fusion protein, or with an equivalent volume of DMSO alone as a negative control. The T cell staining is performed at room temperature or 4° C. for 20 min, at a concentration of 40 μg/ml of the lipid or control treated CD1d-Fc aggregate.
Flow cytometric analysis of a CD1d-restricted T cell clone stained with the multimerized CD1d-Fc fusion protein (abbreviated as “hd(8)-fl”) was performed as follows. Staining with CD1d-Fc treated with lipid antigens dissolved in DMSO was compared with CD1d-Fc treated with DMSO alone as a negative control. The specific lipid antigen used were: aGalCer is α-galactosyl ceramide (KRN7000); aGlcCer is α-glucosyl ceramide; aManCer is α-mannosyl ceramide; bGalCer is β-galactosyl ceramide; Cer is ceramide (acylphytosphingolipid).
Flow cytometric analysis of a series of human T cell clones stained with the multimerized CD1d-Fc fusion protein, treated with α-GalCer or DMSO alone also was performed, including staining of two different CD1d-restricted (“NKT”) T cell clones DN2.B9 and DN1.10B3. Four other T cell clones that are not CD1d-restricted also were stained.

β-galactosylceramide [β-GalCer]
staining of CD1d-restricted T cell clones by lipid treated CD1d-Fc aggregate: did not stain above background levels

CCCCCCCCCCCCCCCCCCCCCCCCCC(=O)N[C@@H](CO[C@H]1O[C@H](CO)[C@H](O)[C@H](O)[C@H]1O)[C@H](O)[C@H](O)CCCCCCCCCCCCCC [α-GalCer, α-galactosylceramide]
staining of CD1d-restricted T cell clones by lipid treated CD1d-Fc aggregate (listed as aGalCer): positive staining

unglycosylated ceramide
staining of CD1d-restricted T cell clones by lipid treated CD1d-Fc aggregate: did not stain above background levels

Reference: patent publication US20020071842A1, “Soluble CD1 compositions and uses thereof” (priority 2000, published 2002)
